Consider two molecules from ChEMBL document CHEMBL1150595, “Isolation and structure elucidation of radical scavengers from Thymus vulgaris leaves” (J Nat Prod, 2002).

Data set [1] can be described thus: ABTS radical scavenging activity assessed as Trolox equivalent antioxidant capacity after 1 min. It is filed as physicochemical.
The test system of data set [2] is Radical scavenging activity. As to the kind of experiment: Antioxidant activity assessed as DPPH radical scavenging activity at drug-DPPH molar ratio of 1:2 after 15 mins. The format is functional.
The nature of data set [3]: ABTS radical scavenging activity assessed as Trolox equivalent antioxidant capacity after 6 mins. The format is physicochemical. The following applies: 0.1 h.
Data set [4] relates to Radical scavenging activity. As to the kind of experiment: Antioxidant activity assessed as DPPH radical scavenging activity after 1 min. It is filed as functional. Background: Loss of DPPH colour is used to gauge radical scavenging.
Data set [5] concerns Radical scavenging activity. As to the kind of experiment: Antioxidant activity assessed as DPPH radical scavenging activity after 3 mins. The format is functional.

Active and inactive are the calls of the source. The calls are words filed in the database; no cut-off is given here.

On to `O=C(/C=C/c1ccc(O)c(O)c1)O[C@H](Cc1ccc(O)c(O)c1)C(=O)O` [ROSMARINIC ACID], for which the Ratio in data set [1] is given as 1.5; in data set [3], 1.54. In addition, the inhibition in data set [2] stood at 95%; in data set [4] it was 43%.

Regarding `O=C(/C=C/c1ccc(O)c(O/C(=C\c2ccc(O)c(O)c2)C(=O)O)c1)O[C@H](Cc1ccc(O)c(O)c1)C(=O)O`, the Ratio worked out at 0.58 in data set [1] and 0.69 in data set [3]. The inhibition worked out at 96% in data set [2] and 70% in data set [4]. The result in data set [5] was Active.

As usually defined, the inhibition is the percentage by which the read-out fell short of the control.
